In article PMC5218480 (PLoS ONE, 2017):

Test system: MV-4-11 cells
Test: Gene expression microarray analysis (Affymetrix PrimeView) and GSEA
Format: cell-based, human
Parameters: RFU PODN (11730768_x_at) / Fold change /veh PODN (11730768_x_at) / RFU LINC00158 (11744669_a_at) / Fold change /veh LINC00158 (11744669_a_at) / RFU DUSP10 (11751237_a_at) / Fold change /veh DUSP10 (11751237_a_at) / RFU ID3 (11757404_x_at) / Fold change /veh ID3 (11757404_x_at) / RFU PLEKHG5 (11737974_s_at) / Fold change /veh PLEKHG5 (11737974_s_at) / RFU LRRC4B (11730491_at) / Fold change /veh LRRC4B (11730491_at) / RFU GIMAP4 (11747438_a_at) / Fold change /veh GIMAP4 (11747438_a_at) / RFU KRT8 (11758183_x_at) / Fold change /veh KRT8 (11758183_x_at) / RFU CNN1 (11734310_a_at) / Fold change /veh CNN1 (11734310_a_at) / RFU VPS37D (11726825_at) / Fold change /veh VPS37D (11726825_at) / RFU C10orf10 (11716522_x_at) / Fold change /veh C10orf10 (11716522_x_at) / RFU KIR2DL2 /// KIR2DL4 /// KIR2DL5A /// KIR2DL5B /// KIR2DS1 /// KIR2DS2 /// KIR2DS3 /// KIR2DS4 /// KIR3DL3 /// KIR3DL3 /// KIR3DS1 (11738374_at) / Fold change /veh KIR2DL2 /// KIR2DL4 /// KIR2DL5A /// KIR2DL5B /// KIR2DS1 /// KIR2DS2 /// KIR2DS3 /// KIR2DS4 /// KIR3DL3 /// KIR3DL3 /// KIR3DS1 (11738374_at) / RFU C1QL1 (11718748_at) / Fold change /veh C1QL1 (11718748_at) / RFU TMPRSS4 (11747572_a_at) / Fold change /veh TMPRSS4 (11747572_a_at) / RFU HAMP (11756126_x_at) / Fold change /veh HAMP (11756126_x_at) / RFU RNFT2 (11725882_a_at) / Fold change /veh RNFT2 (11725882_a_at) / RFU NR4A2 (11747474_a_at) / Fold change /veh NR4A2 (11747474_a_at) / RFU ABCC12 (11746883_a_at) / Fold change /veh ABCC12 (11746883_a_at) / RFU TMEM136 (11760407_x_at) / Fold change /veh TMEM136 (11760407_x_at) / RFU CLDN22 /// WWC2 (11732394_at) / Fold change /veh CLDN22 /// WWC2 (11732394_at) / RFU HLA-DPB1 (11760878_x_at) / Fold change /veh HLA-DPB1 (11760878_x_at) / RFU SPINT1 (11716480_a_at) / Fold change /veh SPINT1 (11716480_a_at) / RFU GAP43 (11754022_s_at) / Fold change /veh GAP43 (11754022_s_at) / RFU A4GNT (11735810_at) / Fold change /veh A4GNT (11735810_at) / RFU PRB3 (11715151_x_at) / Fold change /veh PRB3 (11715151_x_at) / RFU TUBB4B (11761932_at) / Fold change /veh TUBB4B (11761932_at) / RFU CAPN14 (11732068_a_at) / Fold change /veh CAPN14 (11732068_a_at) / RFU TMCC2 (11721928_a_at) / Fold change /veh TMCC2 (11721928_a_at) / RFU IRGQ (11745062_a_at) / Fold change /veh IRGQ (11745062_a_at) / RFU FAM174B (11720279_a_at) / Fold change /veh FAM174B (11720279_a_at) / RFU TMPRSS4 (11748680_a_at) / Fold change /veh TMPRSS4 (11748680_a_at) / RFU FAM212B (11763350_a_at) / Fold change /veh FAM212B (11763350_a_at) / RFU PLEKHG5 (11743358_a_at) / Fold change /veh PLEKHG5 (11743358_a_at) / RFU ZSCAN30 (11745921_a_at) / Fold change /veh ZSCAN30 (11745921_a_at) / RFU CMKLR1 (11741424_a_at) / Fold change /veh CMKLR1 (11741424_a_at) / RFU LOC101060620 /// MAPK8IP1 (11723275_at) / Fold change /veh LOC101060620 /// MAPK8IP1 (11723275_at) / RFU SPTSSB (11747773_x_at) / Fold change /veh SPTSSB (11747773_x_at) / RFU PRSS12 (11739890_at) / Fold change /veh PRSS12 (11739890_at) / RFU BIN1 (11741810_x_at) / Fold change /veh BIN1 (11741810_x_at) / RFU WNT11 (11732464_a_at) / Fold change /veh WNT11 (11732464_a_at) / RFU C10orf10 (11716521_a_at) / Fold change /veh C10orf10 (11716521_a_at) / RFU C5orf56 (11738089_at) / Fold change /veh C5orf56 (11738089_at) / RFU CYB561 (11721691_x_at) / Fold change /veh CYB561 (11721691_x_at) / RFU ANKRD19P (11752326_a_at) / Fold change /veh ANKRD19P (11752326_a_at) / RFU OR2T12 /// OR2T33 /// OR2T8 (11738714_s_at) / Fold change /veh OR2T12 /// OR2T33 /// OR2T8 (11738714_s_at) / RFU VCAN (11748164_a_at) / Fold change /veh VCAN (11748164_a_at) / RFU JSRP1 (11732532_at) / Fold change /veh JSRP1 (11732532_at) / RFU KRTAP10-11 (11738290_x_at) / Fold change /veh KRTAP10-11 (11738290_x_at) / RFU MYO3A (11730013_a_at) / Fold change /veh MYO3A (11730013_a_at) / RFU EBF3 (11725865_a_at) / Fold change /veh EBF3 (11725865_a_at) / RFU CAMK2N1 (11719241_x_at) / Fold change /veh CAMK2N1 (11719241_x_at) / RFU C5orf56 (11738088_a_at) / Fold change /veh C5orf56 (11738088_a_at) / RFU OLFML3 (11715873_a_at) / Fold change /veh OLFML3 (11715873_a_at) / RFU LOC100653217 /// NTM (11731650_a_at) / Fold change /veh LOC100653217 /// NTM (11731650_a_at) / RFU MAPK11 (11762145_a_at) / Fold change /veh MAPK11 (11762145_a_at) / RFU FIZ1 (11724087_x_at) / Fold change /veh FIZ1 (11724087_x_at) / RFU OASL (11726364_x_at) / Fold change /veh OASL (11726364_x_at) / RFU SOX15 (11748057_x_at) / Fold change /veh SOX15 (11748057_x_at) / RFU CD79A (11719716_a_at) / Fold change /veh CD79A (11719716_a_at) / RFU HIST1H1D (11736915_at) / Fold change /veh HIST1H1D (11736915_at) / RFU CASKIN2 (11723855_a_at) / Fold change /veh CASKIN2 (11723855_a_at) / RFU LOC730098 (11760151_x_at) / Fold change /veh LOC730098 (11760151_x_at) / RFU OR4N2 (11742367_at) / Fold change /veh OR4N2 (11742367_at) / RFU PRRT2 (11749266_a_at) / Fold change /veh PRRT2 (11749266_a_at) / RFU SNX32 (11753110_a_at) / Fold change /veh SNX32 (11753110_a_at) / RFU CDHR5 (11726645_a_at) / Fold change /veh CDHR5 (11726645_a_at) / RFU RCAN1 (11760418_a_at) / Fold change /veh RCAN1 (11760418_a_at) / RFU FAM167A (11723789_a_at) / Fold change /veh FAM167A (11723789_a_at) / RFU FAM26E (11764081_at) / Fold change /veh FAM26E (11764081_at) / RFU ISYNA1 (11749810_s_at) / Fold change /veh ISYNA1 (11749810_s_at) / RFU ACY1 (11761880_at) / Fold change /veh ACY1 (11761880_at) / RFU 11764098_at / Fold change /veh 11764098_at / RFU SAMD14 (11745864_x_at) / Fold change /veh SAMD14 (11745864_x_at) / RFU NPB (11741838_a_at) / Fold change /veh NPB (11741838_a_at) / RFU TMPRSS6 (11731388_a_at) / Fold change /veh TMPRSS6 (11731388_a_at) / RFU KRTAP10-2 (11738614_at) / Fold change /veh KRTAP10-2 (11738614_at) / RFU ARHGAP8 /// PRR5-ARHGAP8 (11727945_x_at) / Fold change /veh ARHGAP8 /// PRR5-ARHGAP8 (11727945_x_at) / RFU KRTAP5-7 /// NADSYN1 (11734609_at) / Fold change /veh KRTAP5-7 /// NADSYN1 (11734609_at) / RFU RASL12 (11751679_a_at) / Fold change /veh RASL12 (11751679_a_at) / RFU CDKN2B (11736163_a_at) / Fold change /veh CDKN2B (11736163_a_at) / RFU PRF1 (11729649_at) / Fold change /veh PRF1 (11729649_at) / RFU, ZNF638 /// ZNF638-IT1 / Fold change vs veh, ZNF638 /// ZNF638-IT1 / RFU, PANK3 / Fold change vs veh, PANK3 / RFU, SH3YL1 / Fold change vs veh, SH3YL1 / RFU, ZEB2 / Fold change vs veh, ZEB2 / RFU, NRIP1 / Fold change vs veh, NRIP1 / RFU, PTTG1IP / Fold change vs veh, PTTG1IP / RFU, CAPN2 / Fold change vs veh, CAPN2 / RFU, MED14 / Fold change vs veh, MED14 / RFU, SNORA58 / Fold change vs veh, SNORA58 / RFU, C1orf63 / Fold change vs veh, C1orf63 / RFU, LRRFIP1 / Fold change vs veh, LRRFIP1 / RFU, NDUFAF7 / Fold change vs veh, NDUFAF7 / RFU, SLC12A2 / Fold change vs veh, SLC12A2 / RFU, IBTK / Fold change vs veh, IBTK / RFU, ESF1 / Fold change vs veh, ESF1 / Fold change vs veh, TMEM50B / RFU, TAOK1 / Fold change vs veh, TAOK1 / RFU, ACBD3 / Fold change vs veh, ACBD3 / RFU, TMA16 / Fold change vs veh, TMA16 / RFU, RWDD3 / Fold change vs veh, RWDD3 / RFU, BCAT1 / Fold change vs veh, BCAT1 / RFU, EDEM3 / Fold change vs veh, EDEM3 / RFU, TMEM33 / Fold change vs veh, TMEM33 / RFU, WDR75 / Fold change vs veh, WDR75 / RFU, AHCTF1 / Fold change vs veh, AHCTF1 / RFU, TFRC / Fold change vs veh, TFRC / RFU, ZDHHC17 / Fold change vs veh, ZDHHC17 / RFU, NOM1 / Fold change vs veh, NOM1 / RFU, ARL8B / Fold change vs veh, ARL8B / RFU, ZBTB11 / Fold change vs veh, ZBTB11 / RFU, TAMM41 / Fold change vs veh, TAMM41 / RFU, KIAA1704 /// LOC100996395 / Fold change vs veh, KIAA1704 /// LOC100996395 / RFU, ING1 / Fold change vs veh, ING1 / RFU, TRMT61B / Fold change vs veh, TRMT61B / RFU, FUBP3 / Fold change vs veh, FUBP3 / RFU, TP53 / Fold change vs veh, TP53 / RFU, TNKS2 / Fold change vs veh, TNKS2 / RFU, ZFP14 / Fold change vs veh, ZFP14 / RFU, ACTR2 / Fold change vs veh, ACTR2 / RFU, PPP3R1 / Fold change vs veh, PPP3R1 / RFU, PIK3R1 / Fold change vs veh, PIK3R1 / RFU, HNRNPA1 / Fold change vs veh, HNRNPA1 / RFU, RNF170 / Fold change vs veh, RNF170 / RFU, ZNF28 / Fold change vs veh, ZNF28 / RFU, RNGTT / Fold change vs veh, RNGTT / RFU, OGT / Fold change vs veh, OGT / RFU, BRD1 / Fold change vs veh, BRD1 / RFU, MARS / Fold change vs veh, MARS / RFU, ZNF655 / Fold change vs veh, ZNF655 / RFU, FAHD1 / Fold change vs veh, FAHD1 / RFU, BDP1 / Fold change vs veh, BDP1 / RFU, LRRCC1 / Fold change vs veh, LRRCC1 / RFU, ARID1A / Fold change vs veh, ARID1A / RFU, ZNF146 / Fold change vs veh, ZNF146 / RFU, ZNF330 / Fold change vs veh, ZNF330 / RFU, GPN3 / Fold change vs veh, GPN3 / RFU, C9orf123 / Fold change vs veh, C9orf123 / RFU, N4BP2L2 / Fold change vs veh, N4BP2L2 / RFU, ARFIP1 / Fold change vs veh, ARFIP1 / RFU, FAM179B / Fold change vs veh, FAM179B / RFU, BCL10 / Fold change vs veh, BCL10 / RFU, UHRF1BP1L / Fold change vs veh, UHRF1BP1L / RFU, BET1 / Fold change vs veh, BET1 / RFU, CNOT2 / Fold change vs veh, CNOT2 / RFU, ZNF268 / Fold change vs veh, ZNF268 / Fold change vs veh, ZNF507 / RFU, DGCR2 / Fold change vs veh, DGCR2 / RFU, WDSUB1 / Fold change vs veh, WDSUB1 / Fold change vs veh, HSP90B1 /// MIR3652 / RFU, ADSS / Fold change vs veh, ADSS / RFU, GK / Fold change vs veh, GK / RFU, ZNF148 / Fold change vs veh, ZNF148 / RFU, TAF9 / Fold change vs veh, TAF9 / RFU, SLC1A5 / Fold change vs veh, SLC1A5 / RFU, SLMO2 / Fold change vs veh, SLMO2 / RFU, ABCC4 / Fold change vs veh, ABCC4 / RFU, LOC101060439 /// RAP1B / Fold change vs veh, LOC101060439 /// RAP1B / RFU, RFX7 / Fold change vs veh, RFX7 / RFU, GTPBP10 / Fold change vs veh, GTPBP10 / RFU, CNEP1R1 / Fold change vs veh, CNEP1R1 / RFU, BIVM-ERCC5 /// ERCC5 / Fold change vs veh, BIVM-ERCC5 /// ERCC5 / RFU, ILF3 / Fold change vs veh, ILF3 / RFU 11762660_at / Fold change /veh 11762660_at / RFU VCAN (11757783_s_at) / Fold change /veh VCAN (11757783_s_at) / RFU DDX43 (11728927_at) / Fold change /veh DDX43 (11728927_at) / RFU KRT8 (11758188_x_at) / Fold change /veh KRT8 (11758188_x_at) / RFU NKD1 (11759106_at) / Fold change /veh NKD1 (11759106_at) / RFU SRD5A1 (11742802_a_at) / Fold change /veh SRD5A1 (11742802_a_at) / RFU TPSAB1 /// TPSB2 (11721975_s_at) / Fold change /veh TPSAB1 /// TPSB2 (11721975_s_at) / RFU GSTM3 (11746129_a_at) / Fold change /veh GSTM3 (11746129_a_at) / RFU IL23R (11737362_x_at) / Fold change /veh IL23R (11737362_x_at) / RFU TMEM51 (11727254_a_at) / Fold change /veh TMEM51 (11727254_a_at) / RFU PIWIL2 (11732686_x_at) / Fold change /veh PIWIL2 (11732686_x_at) / RFU ORM1 (11744905_x_at) / Fold change /veh ORM1 (11744905_x_at) / RFU CCDC152 (11743942_at) / Fold change /veh CCDC152 (11743942_at) / RFU ECM1 (11717891_a_at) / Fold change /veh ECM1 (11717891_a_at) / RFU IL23R (11748794_a_at) / Fold change /veh IL23R (11748794_a_at) / RFU TNFAIP8L3 (11732012_x_at) / Fold change /veh TNFAIP8L3 (11732012_x_at) / RFU MBOAT4 (11741988_at) / Fold change /veh MBOAT4 (11741988_at) / RFU 11764193_at / Fold change /veh 11764193_at / RFU TMEM53 (11763286_at) / Fold change /veh TMEM53 (11763286_at) / RFU MAGEB2 (11727129_at) / Fold change /veh MAGEB2 (11727129_at) / RFU TMEM200A (11744735_a_at) / Fold change /veh TMEM200A (11744735_a_at) / RFU CCDC152 (11751479_a_at) / Fold change /veh CCDC152 (11751479_a_at) / RFU FAM211A (11726209_a_at) / Fold change /veh FAM211A (11726209_a_at) / RFU RGS16 (11746705_a_at) / Fold change /veh RGS16 (11746705_a_at) / RFU VCAN (11755009_s_at) / Fold change /veh VCAN (11755009_s_at) / RFU RHOB (11743442_s_at) / Fold change /veh RHOB (11743442_s_at) / RFU RGS16 (11720943_a_at) / Fold change /veh RGS16 (11720943_a_at) / RFU RGS16 (11720944_at) / Fold change /veh RGS16 (11720944_at) / RFU, VPS4B / Fold change vs veh, VPS4B / RFU, CREB1 / Fold change vs veh, CREB1 / RFU, DNAJC13 / Fold change vs veh, DNAJC13 / RFU, GNAQ / Fold change vs veh, GNAQ / RFU, CDK5R1 / Fold change vs veh, CDK5R1 / RFU, ZRANB3 / Fold change vs veh, ZRANB3 / RFU, CUL4A / Fold change vs veh, CUL4A / RFU, CCNY / Fold change vs veh, CCNY / RFU, UFL1 / Fold change vs veh, UFL1 / RFU, COG3 / Fold change vs veh, COG3 / RFU, DIAPH2 / Fold change vs veh, DIAPH2 / RFU, SKA2 / Fold change vs veh, SKA2 / RFU, AFF3 / Fold change vs veh, AFF3 / RFU, LMF1 / Fold change vs veh, LMF1 / RFU, IPO11 / Fold change vs veh, IPO11 / RFU, DFFB / Fold change vs veh, DFFB / RFU, FOXP1 / Fold change vs veh, FOXP1 / RFU, CARD8 / Fold change vs veh, CARD8 / RFU, STRN3 / Fold change vs veh, STRN3 / RFU, ADK / Fold change vs veh, ADK / RFU, RASSF2 / Fold change vs veh, RASSF2 / RFU, WIPF1 / Fold change vs veh, WIPF1 / RFU, LARP1B / Fold change vs veh, LARP1B / RFU, RASA1 / Fold change vs veh, RASA1 / RFU, RB1 / Fold change vs veh, RB1 / RFU, PPFIA1 / Fold change vs veh, PPFIA1 / RFU, MAT2A / Fold change vs veh, MAT2A / RFU, CCT5 / Fold change vs veh, CCT5 / RFU, WDR92 / Fold change vs veh, WDR92 / RFU, CUX1 / Fold change vs veh, CUX1 / RFU, TTC7A / Fold change vs veh, TTC7A / RFU, TMEM135 / Fold change vs veh, TMEM135 / RFU, DEPTOR / Fold change vs veh, DEPTOR / RFU, CPM / Fold change vs veh, CPM / RFU, DNAJB6 / Fold change vs veh, DNAJB6 / RFU, CACNA2D3 / Fold change vs veh, CACNA2D3 / RFU, DTX4 / Fold change vs veh, DTX4 / RFU, TFCP2 / Fold change vs veh, TFCP2 / RFU, GMCL1 /// GMCL1P1 / Fold change vs veh, GMCL1 /// GMCL1P1 / RFU, AEBP2 / Fold change vs veh, AEBP2 / RFU, SNHG1 /// SNORD22 /// SNORD25 /// SNORD26 /// SNORD27 /// SNORD28 /// SNORD29 /// SNORD31 / Fold change vs veh, SNHG1 /// SNORD22 /// SNORD25 /// SNORD26 /// SNORD27 /// SNORD28 /// SNORD29 /// SNORD31 / Fold change (Aza/veh), C12orf56 (ProbeSet 11735607_a_at) / Fold change (ACY-1035/veh), C12orf56 (ProbeSet 11735607_a_at) / Fold change (Aza/veh), FGFR1OP (ProbeSet 11751329_s_at) / Fold change (ACY-1035/veh), FGFR1OP (ProbeSet 11751329_s_at) / Fold change (Aza/veh), VPS36 (ProbeSet 11739960_a_at) / Fold change (ACY-1035/veh), VPS36 (ProbeSet 11739960_a_at) / RFU SYPL1 (11715823_x_at) / Fold change /veh SYPL1 (11715823_x_at) / RFU IGFBP7 (11715501_s_at) / Fold change /veh IGFBP7 (11715501_s_at) / RFU REEP3 (11722064_at) / Fold change /veh REEP3 (11722064_at) / RFU IGLL1 (11728026_x_at) / Fold change /veh IGLL1 (11728026_x_at): dose or concentration left out as unconfirmed
Conditions: MV-4-11 cells, 48 hours

Nc1ncn([C@@H]2O[C@H](CO)[C@@H](O)[C@H]2O)c(=O)n1 [azacitidine]
RFU RASL12 (11751679_a_at): 15.38 RFU
